Experimental data from PubChem BioAssay AID1919017 (Molecular Pharmacology Branch, DTP, NCI, 2023).

Test system: SW1271 complex spheroids with HUVEC/MSC, growth, % test/control
Assay: Anticancer human tumor SW1271 cell line growth inhibition [AhR];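 further: spheroids exposed to agents for 7 days before readout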
Conditions: for IC50: curve of first compound; for viability, T/C: stronger effect = lower value
Excerpt: Multicellular complex tumor spheroid response to aryl hydrocarbon receptor antagonists in combination with a variety of drugs and investigational agents in selected tumor cell lines
The current study was undertaken to assess response to aryl hydrocarbon receptor antagonists in combination with standard-of-care drugs and investigational agents in solid tumor complex spheroid models. Complex spheroids include a stromal component modeled by human endothelial cells (HUVEC) and fibroblasts modeled by human mesenchymal stem cells (MSCs). The concentration ranges selected for each drug and investigational agent were based upon clinically achievable concentrations if the clinical Cmax of the agent was known.
Compounds. The drugs and investigational agents: BAY 2416964 (NSC825713), GNF351 (NSC835774), CH-223191 (NSC835775), CPI-455 (NSC825282), aza-TdCyd (NSC777586), decitabine (NSC127716), belinostat (NSC758774), entinostat (NSC756642), pevonedistat (NSC761192), tazemetostat (NSC777109), talazoparib (NSC765396), olaparib (NSC753686), selinexor (NSC780203), nedisertib (M3814, NSC802822), bortezomib (NSC756655), venetoclax (NSC766270), doxorubicin (NSC123127), elimusertib (BAY189344, NSC800525), ceralasertib (AZD6738, NSC777638), TAK-243 (NSC785004), alisertib (NSC759677), etoposide (NSC141540), topotecan (NSC609699), eribulin (NSC707389), gemcitabine (NSC613327), carboplatin (NSC241240), cisplatin (NSC119875), and SN-38 (NSC673596) were obtained from the National Cancer Institute (NCI) Developmental Therapeutics Program Chemical Repository (32). The FDA-approved anticancer drug set is available from the Developmental Therapeutics Program at https://dtp.cancer.gov/organization/dscb/obtaining/available plates.htm. […] The stock solutions were prepared in dimethyl sulfoxide (DMSO, Sigma-Aldrich, St. Louis, MO, cat. D2650), except for the platinum compounds which were prepared in saline (Quality Biological, Gaithersburg, MD, cat. 114-055-101), at 800-fold the tested concentration and stored at -70 degrees C prior to their use. All drugs and investigational agents were tested over a range starting from a high concentration at or near the clinical Cmax and decreasing in half-log increments. If the clinical Cmax for an agent had not been determined, the highest concentration tested was 10 microM (Table 1).
Cell Culture. All cells were maintained in an incubator at 37 degrees C and 5% CO2 with 95% humidity. The PDC lines were cultured according to standard operating procedures established by the NCI PDMR (https://pdmr.cancer.gov). Briefly, all PDCs were thawed and cultured in Matrigel-coated flasks prepared with a working solution of 1X Ham's F-12 nutrient mix, without supplementation (Invitrogen, Waltham, MA, cat. 11765054), 100 U/mL penicillin-streptomycin (Invitrogen, cat. 15140122), and 2.5% Matrigel (Corning Inc., Corning, NY, cat. 354248) for the first three passages. All PDCs were cultured in complete DMEM/F-12 media containing advanced DMEM/F-12 (Invitrogen, cat. 12634028), 4.9% defined fetal bovine serum, heat inactivated (HyClone Laboratories Inc., Logan, UT, cat. SH30070.03HI), 389 ng/mL hydrocortisone (Sigma-Aldrich, cat. H4001), 9.7 ng/mL human EGF recombinant protein (Invitrogen, cat. PHG0313), 23.4 microg/mL adenine (Sigma-Aldrich, cat. A2786), 97.3 U/mL penicillin-streptomycin (Invitrogen, cat. 15140122), 1.9 mM L-glutamine (Invitrogen, cat. 25030081), and 9.7 microM Y-27632 dihydrochloride (Tocris Bioscience, Bristol, United Kingdom, cat. 1254). The PDCs were cultured in complete DMEM/F12 media without 10 microM Y-27632 dihydrochloride for at least two passages prior to the screen. The established cell lines NCI-H1341 and […] were cultured in DMEM/F-12, HEPES (Invitrogen, cat. 11330032), 5% defined fetal bovine serum (HyClone Laboratories Inc., cat. SH30070.03), ITS premix universal culture supplement [insulin (5 microg/mL), transferrin (5 microg/mL), and selenious acid (5 ng/mL)] […]

[1] = second compound 0.1 µM, first compound 0.0316 µM
[2] = second compound 0.1 µM, first compound 0.1 µM
[3] = second compound 0.1 µM, first compound 0.316 µM
[4] = second compound 0.1 µM, first compound 1 µM
[5] = second compound 0.1 µM, first compound 3.16 µM
[6] = second compound 0.1 µM, first compound 10 µM
[7] = second compound 0.316 µM, first compound 0.0316 µM
[8] = second compound 0.316 µM, first compound 0.1 µM
[9] = second compound 0.316 µM, first compound 0.316 µM
[10] = second compound 0.316 µM, first compound 1 µM
[11] = second compound 0.316 µM, first compound 3.16 µM
[12] = second compound 0.316 µM, first compound 10 µM
[13] = second compound 1 µM, first compound 0.0316 µM
[14] = second compound 1 µM, first compound 0.1 µM
[15] = second compound 1 µM, first compound 0.316 µM
[16] = second compound 1 µM, first compound 1 µM
[17] = second compound 1 µM, first compound 3.16 µM
[18] = second compound 1 µM, first compound 10 µM
[19] = second compound 3.16 µM, first compound 0.0316 µM
[20] = second compound 3.16 µM, first compound 0.1 µM
[21] = second compound 3.16 µM, first compound 0.316 µM
[22] = second compound 3.16 µM, first compound 1 µM
[23] = second compound 3.16 µM, first compound 3.16 µM
[24] = second compound 3.16 µM, first compound 10 µM
[25] = second compound 10 µM, first compound 0.0316 µM
[26] = second compound 10 µM, first compound 0.1 µM
[27] = second compound 10 µM, first compound 0.316 µM
[28] = second compound 10 µM, first compound 1 µM
[29] = second compound 10 µM, first compound 3.16 µM
[30] = second compound 10 µM, first compound 10 µM

For `CC(C)c1c(-c2ccccc2)nc2c(C#N)c[nH]n2c1=O` + Cc1cncc(-c2nc(NCCc3c[nH]c4ccccc34)c3ncn(C(C)C)c3n2)c1, the IC50 (second compound 0.1 µM) was > 10 µM, the IC50 (second compound 0.316 µM) was > 10 µM and the IC50 (second compound 1 µM) was > 10 µM. The IC50 (second compound 3.16 µM) was > 10 µM, the IC50 (second compound 10 µM) was 0.472 µM and the viability, T/C [1] was 104%. It also gave a viability, T/C [2] of 104%, a viability, T/C [3] of 96.4% and a viability, T/C [4] of 111%. For the same molecule, the viability, T/C [5] was 102%, the viability, T/C [6] was 108% and the viability, T/C [7] was 85.2%. It also gave a viability, T/C [8] of 121%, a viability, T/C [9] of 100% and a viability, T/C [10] of 96.3%. For the same molecule, the viability, T/C [11] was 95.9%, the viability, T/C [12] was 106% and the viability, T/C [13] was 89.5%. The viability, T/C [14] was 111%, the viability, T/C [15] was 87.6% and the viability, T/C [16] was 80.2%. The viability, T/C [17] was 87.7%, the viability, T/C [18] was 82.5% and the viability, T/C [19] was 90.1%. The viability, T/C [20] was 93.7%, the viability, T/C [21] was 109% and the viability, T/C [22] was 91.5%. The viability, T/C [23] was 99.2%, the viability, T/C [24] was 99.9% and the viability, T/C [25] was 53.4%. It also gave a viability, T/C [26] of 58%, a viability, T/C [27] of 48% and a viability, T/C [28] of 48.2%. It also gave a viability, T/C [29] of 44.8% and a viability, T/C [30] of 50.4%.

In the case of `Nc1ccn(C2OC(CO)C(O)C2(F)F)c(=O)n1` (stereo not given) + Cc1cncc(-c2nc(NCCc3c[nH]c4ccccc34)c3ncn(C(C)C)c3n2)c1, the IC50 (second compound 0.1 µM) is reported as > 10 µM, the IC50 (second compound 0.316 µM) is reported as > 10 µM and the IC50 (second compound 1 µM) is reported as > 10 µM. The IC50 (second compound 3.16 µM) was > 10 µM, the IC50 (second compound 10 µM) was < 0.0316 µM and the viability, T/C [1] was 75.4%. For the same molecule, the viability, T/C [2] was 97.1%, the viability, T/C [3] was 67% and the viability, T/C [4] was 64%. It also gave a viability, T/C [5] of 62.7%, a viability, T/C [6] of 54.6% and a viability, T/C [7] of 60.5%. It also gave a viability, T/C [8] of 65.8%, a viability, T/C [9] of 68% and a viability, T/C [10] of 64.3%. The viability, T/C [11] was 66.9%, the viability, T/C [12] was 56.8% and the viability, T/C [13] was 74.2%. It also gave a viability, T/C [14] of 72.8%, a viability, T/C [15] of 85.4% and a viability, T/C [16] of 65%. The viability, T/C [17] was 67.8%, the viability, T/C [18] was 58.4% and the viability, T/C [19] was 81.1%. It also gave a viability, T/C [20] of 78.6%, a viability, T/C [21] of 103% and a viability, T/C [22] of 65%. The viability, T/C [23] was 81.8%, the viability, T/C [24] was 75.2% and the viability, T/C [25] was 39.5%. For the same molecule, the viability, T/C [26] was 38.2%, the viability, T/C [27] was 39.3% and the viability, T/C [28] was 36.7%. The viability, T/C [29] was 37.8% and the viability, T/C [30] was 30.6%.

In the case of `CC1COCCN1c1cc(C2(S(C)(=N)=O)CC2)nc(-c2ccnc3[nH]ccc23)n1` (stereo not given) + CC(CO)NC(=O)c1cc(-c2ccc(Cl)cc2)nn(-c2cnn(C)c2)c1=O, the IC50 (second compound 0.1 µM) is reported as > 10 µM, the IC50 (second compound 0.316 µM) is reported as > 10 µM and the IC50 (second compound 1 µM) is reported as > 10 µM. For the same molecule, the IC50 (second compound 3.16 µM) was 8.83 µM, the IC50 (second compound 10 µM) was > 10 µM and the viability, T/C [1] was 114%. For the same molecule, the viability, T/C [2] was 92.9%, the viability, T/C [3] was 77.6% and the viability, T/C [4] was 88.9%. For the same molecule, the viability, T/C [5] was 72.7%, the viability, T/C [6] was 59.9% and the viability, T/C [7] was 91.3%. For the same molecule, the viability, T/C [8] was 96.7%, the viability, T/C [9] was 90.3% and the viability, T/C [10] was 73.2%. It also gave a viability, T/C [11] of 56.1%, a viability, T/C [12] of 50.9% and a viability, T/C [13] of 80.7%. It also gave a viability, T/C [14] of 100%, a viability, T/C [15] of 98.5% and a viability, T/C [16] of 77%. For the same molecule, the viability, T/C [17] was 68.3%, the viability, T/C [18] was 57.1% and the viability, T/C [19] was 98.3%. The viability, T/C [20] was 83.4%, the viability, T/C [21] was 86.4% and the viability, T/C [22] was 73.3%. The viability, T/C [23] was 61.1%, the viability, T/C [24] was 48.5% and the viability, T/C [25] was 80%. The viability, T/C [26] was 67.6%, the viability, T/C [27] was 72% and the viability, T/C [28] was 70.6%. The viability, T/C [29] was 69.2% and the viability, T/C [30] was 62.9%.

With `Nc1ncn(C2CC(O)C(CO)O2)c(=O)n1` (stereo not given) + CC(CO)NC(=O)c1cc(-c2ccc(Cl)cc2)nn(-c2cnn(C)c2)c1=O the IC50 (second compound 0.1 µM) was > 1 µM, the IC50 (second compound 0.316 µM) was > 1 µM and the IC50 (second compound 1 µM) was > 1 µM. The IC50 (second compound 3.16 µM) was > 1 µM, the IC50 (second compound 10 µM) was > 1 µM and the viability, T/C (second compound 0.1 µM, first compound 0.00316 µM) was 73.8%. It also gave a viability, T/C (second compound 0.1 µM, first compound 0.01 µM) of 85.4%, a viability, T/C [1] of 80% and a viability, T/C [2] of 75.9%. The viability, T/C [3] was 93%, the viability, T/C [4] was 66.8% and the viability, T/C (second compound 0.316 µM, first compound 0.00316 µM) was 78.2%. For the same molecule, the viability, T/C (second compound 0.316 µM, first compound 0.01 µM) was 88%, the viability, T/C [7] was 77.5% and the viability, T/C [8] was 79.7%. The viability, T/C [9] was 62.1%, the viability, T/C [10] was 105% and the viability, T/C (second compound 1 µM, first compound 0.00316 µM) was 76%. The viability, T/C (second compound 1 µM, first compound 0.01 µM) was 79.7%, the viability, T/C [13] was 81.6% and the viability, T/C [14] was 75.1%. The viability, T/C [15] was 75.8%, the viability, T/C [16] was 76.1% and the viability, T/C (second compound 3.16 µM, first compound 0.00316 µM) was 60%. It also gave a viability, T/C (second compound 3.16 µM, first compound 0.01 µM) of 81%, a viability, T/C [19] of 79.3% and a viability, T/C [20] of 67.1%. For the same molecule, the viability, T/C [21] was 68.8%, the viability, T/C [22] was 78% and the viability, T/C (second compound 10 µM, first compound 0.00316 µM) was 65.9%. For the same molecule, the viability, T/C (second compound 10 µM, first compound 0.01 µM) was 66.5%, the viability, T/C [25] was 67.5% and the viability, T/C [26] was 67.2%. For the same molecule, the viability, T/C [27] was 59.1% and the viability, T/C [28] was 54.6%.
